Assay results taken from US5753661A, “Fused benzo compounds containing a nitrogen heterocycle for the treatment of central nervous system disorders” (priority 1992, dated 1998).
pIC50: −log10 of the molar value.

Biological target: T1, 5-HT1A receptor (Rattus norvegicus, UniProt P19327)
T1 sequence (P19327 1-422): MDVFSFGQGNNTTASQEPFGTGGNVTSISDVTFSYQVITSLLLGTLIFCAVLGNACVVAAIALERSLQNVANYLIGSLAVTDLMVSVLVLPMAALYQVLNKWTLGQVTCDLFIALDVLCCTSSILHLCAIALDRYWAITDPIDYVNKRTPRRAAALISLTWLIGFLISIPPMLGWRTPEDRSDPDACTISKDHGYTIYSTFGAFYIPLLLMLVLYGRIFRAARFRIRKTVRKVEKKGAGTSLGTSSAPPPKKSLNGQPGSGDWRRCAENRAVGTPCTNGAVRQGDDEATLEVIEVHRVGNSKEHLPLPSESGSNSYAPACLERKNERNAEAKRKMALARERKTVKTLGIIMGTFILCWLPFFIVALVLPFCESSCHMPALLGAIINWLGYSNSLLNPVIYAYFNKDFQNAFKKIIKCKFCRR
Assay: Inhibition of 3H-8-OH-DPAT binding to serotonin 5-HT1A receptors in rat brain in vitro
Design: 5-HT1A receptors in membranes from rat brain minus cerebellum; from tissue; host or cells: rat brain minus cerebellum, membranes
Conditions: 3H-8-OH-DPAT 1 nM; membranes from rat brain minus cerebellum; read-out: IC50, 3H 8-OH-DPAT binding
Protocol: Inhibition of ^3 H-8-OH-DPAT Binding to Serotonin 5-HT1A Receptors in Rat Brain in vitro.
By this method the inhibition by drugs of the binding of the 5-HT1A agonist 3H-8-OH-DPAT (1 nM) to 5-HT1A receptors in membranes from rat brain minus cerebellum is determined in vitro . Accordingly, this is a test for affinity for the 5-HT1A receptor. The assay was performed as described by Hyttel et al., Drug Dev. Res. 1988, 15, 389-404.

| pIC50 | SMILES |
| --- | --- |
| 6.72 | CS(=O)(=O)CCCN1CCN(c2cccc3c2OCC3)CC1 [Compound 1d, 1-(2,3-Dihydrobenzofuran-7-yl)-4-(3-methylsulfonyl-1-propyl)piperazine] |
| 7.96 | O=C1N(CCN2CCN(c3cccc4ccsc34)CC2)CCN1C1CCCC1 [Compound 2aa, 1-[2-[4-Benzo[b]thiophen-7-yl-1-piperazinyl]ethyl]-3-cyclopentyl-2-imidazolidinone] |
| 7.08 | CCOC(=O)c1cc2c(N3CCN(CCN4CCN(C5CCCC5)C4=O)CC3)cccc2o1 [Compound 2cc, Ethyl [4-[4-[2-(3-cyclopentyl-2-imidazolidinon-1-yl)ethyl]-1-piperazinyl]-2-benzofuranyl] carboxylate] |
| 9.30 | CC1(C)Cc2cccc(N3CCN(CCCCN4CCN(c5ccc(F)cc5)C4=O)CC3)c2O1 [Compound 2dd, 1-[4-[4-(2,3-Dihydro-2,2-dimethylbenzofuran-7-yl)-1-piperazinyl]-1-butyl]-3-(4-fluorophenyl)-2-imidazolidinone] |
| 7.37 | CC(C)(C)N1CCN(CCN2CCN(c3cccc4c3OCCO4)CC2)C1=O [Compound 2ee] |
| 8.18 | CC1(C)Cc2cccc(N3CCN(CCCN4CCN(c5ccccc5)C4=O)CC3)c2O1 [Compound 2ff, 1-[3-[4-(2,3-Dihydro-2,2-dimethylbenzofuran-7-yl)-1-piperazinyl]-1-propyl]-3-phenyl-2-imidazolidinone] |
| 8.55 | CC1(C)Cc2cccc(N3CCN(CCCCN4CCN(C56CC7CC(CC(C7)C5)C6)C4=O)CC3)c2O1 [Compound 2gg, 1-Adamantyl-3-[4-[4-(2,3-dihydro-2,2-dimethylbenzofuran-7-yl)-1-piperazinyl]-1-butyl]-2-imidazolidinone] |
| 7.55 | O=C1N(CCN2CCN(c3cccc4nsnc34)CC2)CCN1c1ccccc1 [Compound 2h, 4-[4-[2-(3-Phenylimidazolidin-2-on-1-yl)ethyl]-1-piperazinyl]-2,1,3-benzothiadiazole] |
| 6.89 | O=C1N(CCCCN2CCN(c3cc(Cl)cc4cc(-c5ccccc5)oc34)CC2)CCN1C1CCCCC1 [Compound 2hh, 1-[4-[4-(5-Chloro-2-phenylbenzofuran-7-yl)-1-piperazinyl]-1-butyl]-3-cyclohexyl-2-imidazolidinone] |
| 7.52 | O=C1N(CCN2CCN(c3cccc4c3OCC4)CC2)CCN1c1ccc(F)cc1 [Compound 2i, 1-[2-[4-(2,3-Dihydrobenzofuran-7-yl)-1-piperazinyl]ethyl]-3-(4-fluorophenyl)-2-imidazolidinone] |
| 6.52 | O=C1N(CCN2CCN(c3cc(Cl)cc4cc(-c5ccccc5)oc34)CC2)CCN1C1CCCC1 [Compound 2ii, 1-[2-[4-(5-Chloro-2-phenylbenzofuran-7-yl)-1-piperazinyl]ethyl]-3-cyclopentyl-2-imidazolidinone] |
| 7.28 | CCOC(=O)c1cc2cccc(N3CCN(CCN4CCN(c5ccccc5)C4=O)CC3)c2[nH]1 [Compound 2j, Ethyl 7-[4-[2-(3-phenyl-2-imidazoidin-2-on-1-yl)ethyl]-1-piperazinyl]-2-indolyl carboxylate] |
| 8.96 | CC1(C)Cc2cccc(N3CCN(CCCCN4CCN(c5cccc6ccccc56)C4=O)CC3)c2O1 [Compound 2jj, 1-[4-[4-(2,3-Dihydro-2,2-dimethylbenzofuran-7-yl)-1-piperazinyl]-1-butyl]-3-(1-naphtyl)-2-imidazolidinone] |
| 7.82 | O=C1N(CCN2CCN(c3cccc4ccccc34)CC2)CCN1c1ccccc1 [Compound 2k, 1-[2-[4-(1-Naphtyl)-1-piperazinyl]ethyl]-3-phenyl-2-imidazolidinone] |
| 8.24 | CC1(C)Cc2cccc(N3CCN(CCCN4CCN(C5CCCCC5)C4=O)CC3)c2O1 [Compound 2kk, 1-Cyclohexyl-3-[3-[4-(2,3-dihydro-2,2-dimethylbenzofuran-7-yl)-1-piperazinyl]-1-propyl]-2-imidazolidinone] |
| 7.14 | CCN1CCN(CCN2CCN(c3cccc4c3OCCO4)CC2)C1=O [Compound 2l, 1-[2-[4-(1,4-Benzodioxan-5-yl)-1-piperazinyl]ethyl]-3ethyl-2-imidazolidinone] |
| 8.00 | CC1(C)Cc2cc(F)cc(N3CCN(CCCCN4CCN(c5ccc(F)cc5)C4=O)CC3)c2O1 [Compound 2ll, 1-[4-[4-(2,3-Dihydro-2,2-dimethyl-5-fluorobenzofuran-7-yl)-1-piperazinyl]-1-butyl]-3-(4-fluorophenyl)-2-imidazolidinone] |
| 8.77 | CC1(C)Cc2cc(F)cc(N3CCN(CCCCN4CCN(C5CCCCC5)C4=O)CC3)c2O1 [Compound 2mm] |
| 8.27 | CC1(C)Cc2cccc(N3CCN(CCCCCCN4CCN(C5CCCC5)C4=O)CC3)c2O1 [Compound 2nn, 1-Cyclopentyl-3-[6-[4-(2,3-dihydro-2,2-dimethylbenzofuran-7-yl)-1-piperazinyl]-1-hexyl]-2-imidazolidinone] |

| pIC50 | SMILES |
| --- | --- |
| 7.36 | CC1(C)COc2c(N3CCN(CCN4CCN(C5CCCC5)C4=O)CC3)cc(Cl)cc21 [Compound 2oo] |
| 7.70 | CC1(C)COc2c(N3CCN(CCCCCCN4CCN(C5CCCC5)C4=O)CC3)cc(Cl)cc21 [Compound 2pp] |
| 7.89 | O=C1N(CCN2CCN(c3cccc4c3OCCO4)CC2)CCN1C12CC3CC(CC(C3)C1)C2 [Compound 2q, 1-Adamantyl-3-[2-[4-(1,4-benzodioxan-5-yl)-1-piperazinyl]ethyl]-2-imidazolidinone] |
| 6.52 | CC1(C)Cc2c(N3CCN(CCCN4CCN(C5CCCCC5)C4=O)CC3)ccc(Cl)c2O1 [Compound 2qq] |
| 7.64 | O=C1N(CCN2CCN(c3cccc4occc34)CC2)CCN1c1ccccc1 [Compound 2r, 1-[2-(4-Benzofuran-4-yl-1-piperazinyl)ethyl]-3-phenyl-2-imidazolidinone] |
| 7.49 | O=C1N(CCN2CCN(c3cccc4occc34)CC2)CCN1C1CCCC1 [Compound 2s, 1-[2-(4-Benzofuran-4-yl-1-piperazinyl)ethyl]-3-cyclopentyl-2-imidazolidinone] |
| 7.82 | O=C1N(CCN2CCN(c3cccc4ccsc34)CC2)CCN1c1ccccc1 [Compound 2t, 1-[2-(4-Benzo[b]thiophen-7-yl-1-piperazinyl)ethyl]-3-phenyl-2-imidazolidinone] |
| 6.96 | O=C1N(CCN2CCN(c3cccc4cc[nH]c34)CC2)CCN1C1CCCC1 [Compound 2u, 1-Cyclopentyl-3-[2-[4-(7-indolyl)-1-piperazinyl]ethyl]-2-imidazolidinone] |
| 7.15 | O=C1N(CCN2CCN(c3cccc4cc[nH]c34)CC2)CCN1c1ccccc1 [Compound 2v, 1-[2-[4-(7-Indolyl)-1-piperazinyl]ethyl]-3-phenyl-2-imidazolidinone] |
| 7.12 | O=C1N(CCN2CCN(c3cccc4cnsc34)CC2)CCN1c1ccccc1 [Compound 2x, 1-[2-[4-(1,2-Benzisothiazol-7-yl)-1-piperazinyl]ethyl]-3-phenyl-2-imidazolidinone] |
| 7.47 | O=C1N(CCN2CCN(c3cccc4[nH]ccc34)CC2)CCN1c1ccccc1 [Compound 2z, 1-[2-[4-(4-Indolyl)-1-piperazinyl]ethyl]-3-phenyl-2-imidazolidinone] |
| 7.74 | O=C1N(CCCN2CCN(c3cccc4c3OCCO4)CC2)CCN1Cc1ccccc1 [Compound 4a, 1-[3-[4-(1,4-Benzodioxan-5-yl)-1-piperazinyl]-1-propyl]-3-benzyl-2-imidazolidinone] |
| 7.40 | CCN1CCN(CCCN2CCN(c3cccc4c3OCCO4)CC2)C1=O [Compound 4b, 1-[3-[4-(1,4-Benzodioxan-5-yl)-1-piperazinyl]-1-propyl]-3-ethyl-2-imidazolidinone] |
| 7.72 | O=C1N(CCCN2CCN(c3cccc4c3OCCO4)CC2)CCN1C1CCCCC1 [Compound 4c, 1-[3-[4-(1,4-Benzodioxan-5-yl)-1-piperazinyl]-1-propyl]-3-cyclohexyl-2-imidazolidinone] |
| 7.92 | O=c1n(CCN2CCN(c3cccc4c3OCCO4)CC2)ccn1-c1ccccc1 [Compound 5b, 1-[3-[4-(1,4-Benzodioxan-5-yl)-1-piperazinyl]-ethyl]-1,3-dihydro-3-phenyl-2-imidazolone] |
| 6.66 | O=S(=O)(CCN1CCN(c2cccc3c2OCC3)CC1)C1CCCCC1 [Compound 6a, 1-(2-Cyclohexylsulfonyl-1-ethyl)-4-(2,3-dihydrobenzofuran-7-yl)piperazine] |
| 4.29 | O=C1N(CCN2CCN(c3cccc4c3ccn4-c3ccc(F)cc3)CC2)CCN1C1CCCC1 [Compound 7a, 1-Cyclopentyl-3-[2-[4-[1-(4-fluorophenyl)-4-indolyl]-1-piperazinyl]ethyl]-2-imidazolidinone] |
| 8.41 | NC(=O)c1cc2c(N3CCN(CCN4CCN(C5CCCC5)C4=O)CC3)cccc2o1 [Compound 8a, 4-[4-[2-(3-Cyclopentyl-2-imidazolidinon-1-yl)ethyl]-1-piperazinyl]-2-benzofuranylcarboxamide] |
| 6.64 | O=C1N(CCN2CCN(c3cccc4c3NCC4)CC2)CCN1C1CCCC1 [Compound 9a, 1-Cyclopentyl-3-[2-[4-(7-indolinyl)-1-piperazinyl]ethyl]-2-imidazolidinone] |
